± gives the expanded uncertainty stated by the source.
Columns and labels:
[1] = for mass density / kinematic viscosity: 101.33 kPa, Liquid; for mass density: Vibrating tube method; for surface tension liquid-gas / kinematic viscosity: Surface laser light scattering (SLLS)
[2] = refractive index (Na D-line) (dimensionless); settings: 101.33 kPa, Liquid, Standard Abbe refractometry

CCCCCCCCCC(=O)OC [methyl decanoate]
mass density ([1]; 293.15 K): 872.34 ± 1.8 kg/m3 | surface tension liquid-gas ([1]; 298.14 K): 24.73 ± 0.67 mN/m | kinematic viscosity ([1]; 298.14 K): 2.09e-06 ± 7.4e-08 m2/s | mass density ([1]; 303.15 K): 864.01 ± 1.7 kg/m3 | mass density ([1]; 313.15 K): 855.73 ± 1.7 kg/m3 | mass density ([1]; 323.15 K): 847.47 ± 1.7 kg/m3 | surface tension liquid-gas ([1]; 323.16 K): 23.28 ± 0.32 mN/m | kinematic viscosity ([1]; 323.16 K): 1.48e-06 ± 4.3e-08 m2/s | mass density ([1]; 333.15 K): 839.2 ± 1.7 kg/m3 | mass density ([1]; 343.15 K): 830.94 ± 1.7 kg/m3 | surface tension liquid-gas ([1]; 348.16 K): 21.96 ± 0.27 mN/m | kinematic viscosity ([1]; 348.16 K): 1.13e-06 ± 4e-08 m2/s | mass density ([1]; 353.15 K): 822.61 ± 1.7 kg/m3 | mass density ([1]; 363.15 K): 814.38 ± 1.6 kg/m3 | mass density ([1]; 373.15 K): 806.06 ± 1.6 kg/m3 | surface tension liquid-gas ([1]; 373.17 K): 20.49 ± 0.29 mN/m | kinematic viscosity ([1]; 373.17 K): 8.74e-07 ± 3.1e-08 m2/s | mass density ([1]; 383.15 K): 797.7 ± 1.6 kg/m3 | mass density ([1]; 393.15 K): 789.29 ± 1.6 kg/m3 | surface tension liquid-gas ([1]; 398.08 K): 18.81 ± 0.22 mN/m | kinematic viscosity ([1]; 398.08 K): 6.87e-07 ± 2.4e-08 m2/s | mass density ([1]; 403.15 K): 780.82 ± 1.6 kg/m3 | mass density ([1]; 413.15 K): 771.74 ± 1.6 kg/m3 | surface tension liquid-gas ([1]; 422.99 K): 16.83 ± 0.22 mN/m | kinematic viscosity ([1]; 422.99 K): 5.61e-07 ± 2.1e-08 m2/s | mass density ([1]; 423.15 K): 763.71 ± 1.5 kg/m3 | mass density ([1]; 433.15 K): 755 ± 1.5 kg/m3 | mass density ([1]; 443.15 K): 746.3 ± 1.5 kg/m3 | surface tension liquid-gas ([1]; 447.95 K): 14.87 ± 0.19 mN/m | kinematic viscosity ([1]; 447.95 K): 4.52e-07 ± 2.1e-08 m2/s | mass density ([1]; 453.15 K): 737.39 ± 1.5 kg/m3 | refractive index ([2]; 278.15 K): 1.43209 ± 0.00052 | refractive index ([2]; 283.15 K): 1.42995 ± 0.00052 | refractive index ([2]; 288.15 K): 1.42783 ± 0.00052 | refractive index ([2]; 293.15 K): 1.42571 ± 0.00052 | refractive index ([2]; 298.15 K): 1.42359 ± 0.00052 | refractive index ([2]; 303.15 K): 1.42148 ± 0.00052 | refractive index ([2]; 308.15 K): 1.41938 ± 0.00052 | refractive index ([2]; 313.15 K): 1.41726 ± 0.00052 | refractive index ([2]; 318.15 K): 1.4151 ± 0.00052 | refractive index ([2]; 323.15 K): 1.41295 ± 0.00052 | refractive index ([2]; 328.15 K): 1.41083 ± 0.00052 | refractive index ([2]; 333.15 K): 1.40871 ± 0.00052 | refractive index ([2]; 338.15 K): 1.40659 ± 0.00052 | refractive index ([2]; 343.15 K): 1.40448 ± 0.00052 | refractive index ([2]; 348.15 K): 1.40237 ± 0.00052 | refractive index ([2]; 353.15 K): 1.40028 ± 0.00052 | refractive index ([2]; 358.15 K): 1.39819 ± 0.00052

CCCCCCCCCCCC [dodecane]
mass density ([1]; 293.15 K): 748.81 ± 1.5 kg/m3 | surface tension liquid-gas ([1]; 298.16 K): 23.37 ± 0.73 mN/m | kinematic viscosity ([1]; 298.16 K): 1.76e-06 ± 7.1e-08 m2/s | mass density ([1]; 303.15 K): 741.42 ± 1.5 kg/m3 | mass density ([1]; 313.15 K): 734.08 ± 1.5 kg/m3 | mass density ([1]; 323.15 K): 726.74 ± 1.5 kg/m3 | surface tension liquid-gas ([1]; 323.23 K): 21.9 ± 0.17 mN/m | kinematic viscosity ([1]; 323.23 K): 1.25e-06 ± 4.8e-08 m2/s | mass density ([1]; 333.15 K): 719.38 ± 1.5 kg/m3 | mass density ([1]; 343.15 K): 711.32 ± 1.4 kg/m3 | surface tension liquid-gas ([1]; 348.21 K): 20.09 ± 0.21 mN/m | kinematic viscosity ([1]; 348.21 K): 9.24e-07 ± 3e-08 m2/s | mass density ([1]; 353.15 K): 704.62 ± 1.4 kg/m3 | mass density ([1]; 363.15 K): 697.21 ± 1.4 kg/m3 | mass density ([1]; 373.15 K): 689.75 ± 1.4 kg/m3 | surface tension liquid-gas ([1]; 373.29 K): 18.02 ± 0.22 mN/m | kinematic viscosity ([1]; 373.29 K): 7.24e-07 ± 3.2e-08 m2/s | mass density ([1]; 383.15 K): 682.25 ± 1.4 kg/m3 | mass density ([1]; 393.15 K): 674.68 ± 1.4 kg/m3 | surface tension liquid-gas ([1]; 398.25 K): 16.1 ± 0.16 mN/m | kinematic viscosity ([1]; 398.25 K): 5.87e-07 ± 2.2e-08 m2/s | mass density ([1]; 403.15 K): 667.04 ± 1.4 kg/m3 | mass density ([1]; 413.15 K): 659.32 ± 1.3 kg/m3 | mass density ([1]; 423.15 K): 651.53 ± 1.3 kg/m3 | surface tension liquid-gas ([1]; 423.26 K): 14.25 ± 0.11 mN/m | kinematic viscosity ([1]; 423.26 K): 4.89e-07 ± 1.9e-08 m2/s | mass density ([1]; 433.15 K): 643.6 ± 1.3 kg/m3 | mass density ([1]; 443.15 K): 635.55 ± 1.3 kg/m3 | surface tension liquid-gas ([1]; 448.27 K): 12.32 ± 0.09 mN/m | kinematic viscosity ([1]; 448.27 K): 4.16e-07 ± 1.8e-08 m2/s | mass density ([1]; 453.15 K): 627.38 ± 1.3 kg/m3 | mass density ([1]; 463.15 K): 619.09 ± 1.3 kg/m3 | mass density ([1]; 473.15 K): 610.6 ± 1.2 kg/m3
